Measurements: article PMC11358092, “Caspofungin enhances the potency of rifampin against Gram-negative bacteria” (Frontiers in Microbiology, 2024)
Counter-ions that a name gives are not always drawn.

Test system: E. coli MG1655
Experiment: High-throughput screening of FDA-approved drug library for antibiotic adjuvants (growth inhibition, OD600)
Assay type: cell-based, Escherichia coli
Details: library drug alone, LB medium, 96-well, 8 h static culture at 37°C, relative to PMBN (positive) and DMSO (negative) controls, %, table head prints no unit
Experimental: To screen for antibiotic adjuvants against GNB, […] library drugs or polymyxin B nonapeptide (PMBN, positive control) or dimethyl sulfoxide (DMSO, negative control). After 8 h of static culture at 37°C, the optical density at 600 nm (OD600) was measured using a microplate reader. Percentage inhibition was calculated as (ODN – ODX)/(ODN – ODP) × 100%, where ODX is the OD600 value for a test treated with drug X, and ODP and ODN are the OD600 values for the positive and negative control, respectively.

Compound	Growth inhibition, Compound [%]
O.c1cnc2c(c1)ccc1cccnc12 [1, 10-Phenanthroline monohydrate]	62
Cc1cn([C@H]2C[C@H](F)[C@@H](CO)O2)c(=O)[nH]c1=O [3'-Deoxy-3'-fluorothymidine]	70
Nc1ncn([C@@H]2O[C@H](CO)[C@@H](O)[C@H]2O)c(=O)n1 [5-Azacytidine]	43
NCC[C@H](O)C(=O)N[C@@H]1C[C@H](N)[C@@H](O[C@H]2O[C@H](CN)[C@@H](O)[C@H](O)[C@H]2O)[C@H](O)[C@H]1O[C@H]1O[C@H](CO)[C@@H](O)[C@H](N)[C@H]1O.O=S(=O)(O)O.O=S(=O)(O)O [Amikacin Sulfate Salt]	107
NCC[C@H](O)C(=O)N[C@@H]1C[C@H](N)[C@@H](O[C@H]2O[C@H](CN)[C@@H](O)[C@H](O)[C@H]2O)[C@H](O)[C@H]1O[C@H]1O[C@H](CO)[C@@H](O)[C@H](N)[C@H]1O.O=S(=O)(O)O.O=S(=O)(O)O [Amikacin disulfate]	108
NCC[C@H](O)C(=O)N[C@@H]1C[C@H](N)[C@@H](O[C@H]2O[C@H](CN)[C@@H](O)[C@H](O)[C@H]2O)[C@H](O)[C@H]1O[C@H]1O[C@H](CO)[C@@H](O)[C@H](N)[C@H]1O [Amikacin]	105
CC1(C)S[C@@H]2[C@H](NC(=O)[C@H](N)c3ccc(O)cc3)C(=O)N2[C@H]1C(=O)[O-].[Na+] [Amoxicillin Sodium]	98
CC1(C)S[C@@H]2[C@H](NC(=O)[C@H](N)c3ccccc3)C(=O)N2[C@H]1C(=O)O [Ampicillin sodium]	91
CN(C)[C@@H]1C(O)=C(C(N)=O)C(=O)[C@@]2(O)C(O)=C3C(=O)c4c(O)cccc4[C@@](C)(O)C3[C@H](O)C12.Cl (stereo partly shown) [Aquacycline]	110
C[C@@H]1CC[C@H]2[C@@H](C)C(=O)O[C@@H]3O[C@@]4(C)CC[C@@H]1[C@]32OO4 [Artemisinin]	40
NC(=O)[C@@H]1CC[C@@H]2CN1C(=O)N2OS(=O)(=O)O [Avibactam sodium]	46
CC[C@H]1OC(=O)[C@H](C)[C@@H](O[C@H]2C[C@@](C)(OC)[C@@H](O)[C@H](C)O2)[C@H](C)[C@@H](O[C@@H]2O[C@H](C)C[C@H](N(C)C)[C@H]2O)[C@](C)(O)C[C@@H](C)CN[C@H](C)[C@@H](O)[C@]1(C)O [Azathramycin]	114
CC[C@H]1OC(=O)[C@H](C)[C@@H](O[C@H]2C[C@@](C)(OC)[C@@H](O)[C@H](C)O2)[C@H](C)[C@@H](O[C@@H]2O[C@H](C)C[C@H](N(C)C)[C@H]2O)[C@](C)(O)C[C@@H](C)CN(C)[C@H](C)[C@@H](O)[C@]1(C)O [Azithromycin dihydrate]	111
CC[C@H]1OC(=O)[C@H](C)[C@@H](O[C@H]2C[C@@](C)(OC)[C@@H](O)[C@H](C)O2)[C@H](C)[C@@H](O[C@@H]2O[C@H](C)C[C@H](N(C)C)[C@H]2O)[C@](C)(O)C[C@@H](C)CN(C)[C@H](C)[C@@H](O)[C@]1(C)O [Azithromycin]	109
CC1(C)S[C@@H]2[C@H](NC(=O)[C@H](NC(=O)N3CCNC3=O)c3ccccc3)C(=O)N2[C@H]1C(=O)O [Azlocillin sodium]	94
CNC1CCCN(c2c(F)cc3c(=O)c(C(=O)O)cn(C4CC4)c3c2OC)C1 (stereo not shown) [Balofloxacin]	108
NC[C@H]1O[C@H](O[C@H]2[C@H](O)[C@@H](O[C@H]3O[C@H](CO)[C@@H](O)[C@H](N)[C@H]3O)[C@H](N)C[C@@H]2N)[C@H](N)[C@@H](O)[C@@H]1O [Bekanamycin]	106
S=C=NCc1ccccc1 [Benzyl isothiocyanate]	71
CC1(C)S[C@@H]2[C@H](NC(=O)Cc3ccccc3)C(=O)N2[C@H]1C(=O)O [Benzylpenicillin potassium]	55
Cl.N[C@@H]1CCCCN(c2c(F)cc3c(=O)c(C(=O)O)cn(C4CC4)c3c2Cl)C1 [Besifloxacin HCl]	107
C[C@@H](O)[C@H]1C(=O)N2C(C(=O)[O-])=C(SC3Cn4cnc[n+]4C3)[C@H](C)[C@H]12 (stereo partly shown) [Biapenem]	113
Oc1c(Cl)cc(Cl)cc1Sc1cc(Cl)cc(Cl)c1O [Bithionol]	86
Cc1c(N)nc([C@H](CC(N)=O)NC[C@H](N)C(N)=O)nc1C(=O)N[C@H](C(=O)N[C@H](C)[C@@H](O)[C@H](C)C(=O)N[C@H](C(=O)NCCc1nc(-c2nc(C(=O)NCCC[S+](C)C)cs2)cs1)[C@@H](C)O)[C@@H](O[C@@H]1O[C@@H](CO)[C@@H](O)[C@H](O)[C@@H]1O[C@H]1O[C@H](CO)[C@@H](O)[C@H](OC(N)=O)[C@@H]1O)c1cnc[nH]1.O=S(=O)([O-])O [Bleomycin Sulfate]	110
O=[N+]([O-])C(Br)(CO)CO [Bronopol]	100
Oc1c(Br)cc(Br)c2cccnc12 [Broxyquinoline]	103
Oc1c(Cl)cc(Cl)c2cccnc12 [Capitrol]	118

Compound	Growth inhibition, Compound [%]
COC(=O)N/N=C/c1c[n+]([O-])c2ccccc2[n+]1[O-] [Carbadox]	110
CC1(C)S[C@@H]2[C@H](NC(=O)C(C(=O)O)c3ccccc3)C(=O)N2[C@H]1C(=O)O (stereo partly shown) [Carbenicillin disodium]	89
N[C@@H](C(=O)N[C@@H]1C(=O)N2C(C(=O)O)=C(Cl)CS[C@H]12)c1ccccc1 [Cefaclor monohydrate]	80
Cn1nnnc1SCC1=C(C(=O)O)N2C(=O)[C@@H](NC(=O)[C@H](OC=O)c3ccccc3)[C@H]2SC1 [Cefamandole nafate]	88
Cc1nnc(SCC2=C(C(=O)O)N3C(=O)[C@@H](NC(=O)Cn4cc(Cl)c(=O)c(Cl)c4)[C@H]3SC2)s1 [Cefazedone]	111
Cc1nnc(SCC2=C(C(=O)O)N3C(=O)[C@@H](NC(=O)Cn4cnnn4)[C@H]3SC2)s1 [Cefazolin sodium salt]	90
Cc1nnc(SCC2=C(C(=O)O)N3C(=O)[C@@H](NC(=O)Cn4cnnn4)[C@H]3SC2)s1 [Cefazolin]	102
C=CC1=C(C(=O)O)N2C(=O)[C@@H](NC(=O)/C(=N\O)c3csc(N)n3)[C@H]2SC1 [Cefdinir]	100
CO/N=C(\C(=O)N[C@@H]1C(=O)N2C(C(=O)OCOC(=O)C(C)(C)C)=C(/C=C\c3scnc3C)CS[C@H]12)c1csc(N)n1 [Cefditoren pivoxil]	73
CO/N=C(\C(=O)N[C@@H]1C(=O)N2C(C(=O)O)=C(C[N+]3(C)CCCC3)CS[C@H]12)c1csc(N)n1 [Cefepime Dihydrochloride Monohydrate]	83
C=CC1=C(C(=O)O)N2C(=O)[C@@H](NC(=O)/C(=N\OCC(=O)O)c3csc(N)n3)[C@H]2SC1 [Cefixime]	109
CO/N=C(\C(=O)N[C@@H]1C(=O)N2C(C(=O)O)=C(CSc3nnnn3C)CS[C@H]12)c1csc(N)n1.CO/N=C(\C(=O)N[C@@H]1C(=O)N2C(C(=O)O)=C(CSc3nnnn3C)CS[C@H]12)c1csc(N)n1.Cl [Cefmenoxime hydrochloride]	96
CO[C@@]1(NC(=O)CSCC#N)C(=O)N2C(C(=O)O)=C(CSc3nnnn3C)CS[C@@H]21 [Cefmetazole sodium]	96
CO/N=C(\C(=O)N[C@@H]1C(=O)N2C(C(=O)O)=C(CSc3nc(C)c(CC(=O)O)s3)CS[C@H]12)c1csc(N)n1 [Cefodizime Sodium]	88
O=C([O-])C1=C(CSc2nnnn2CS(=O)(=O)[O-])CS[C@@H]2[C@H](NC(=O)[C@H](O)c3ccccc3)C(=O)N12.[Na+].[Na+] [Cefonicid sodium]	59
CCN1CCN(C(=O)N[C@@H](C(=O)N[C@@H]2C(=O)N3C(C(=O)O)=C(CSc4nnnn4C)CS[C@H]23)c2ccc(O)cc2)C(=O)C1=O [Cefoperazone]	100
NCc1ccccc1CC(=O)N[C@@H]1C(=O)N2C(C(=O)O)=C(CSc3nnnn3CC(=O)O)CS[C@H]12 [Ceforanide]	94
CO/N=C(\C(=O)N[C@@H]1C(=O)N2C(C(=O)[O-])=C(C[n+]3ccc(N)n3CCO)CS[C@H]12)c1csc(N)n1.O=S(=O)(O)O [Cefoselis Sulfate]	107
CO/N=C(\C(=O)N[C@@H]1C(=O)N2C(C(=O)O)=C(COC(C)=O)CS[C@H]12)c1csc(N)n1 [Cefotaxime sodium]	99
CO/N=C(\C(=O)N[C@@H]1C(=O)N2C(C(=O)O)=C(COC(C)=O)CS[C@H]12)c1csc(N)n1 [Cefotaxime]	113
CO[C@@]1(NC(=O)C2SC(=C(C(N)=O)C(=O)O)S2)C(=O)N2C(C(=O)O)=C(CSc3nnnn3C)CS[C@@H]21 (stereo partly shown) [Cefotetan]	97
CC(OC(=O)OC1CCCCC1)OC(=O)C1=C(CSc2nnnn2CCN(C)C)CS[C@@H]2[C@H](NC(=O)Cc3csc(N)n3)C(=O)N12.Cl.Cl (stereo partly shown) [Cefotiam Hexetil Hydrochloride]	87
CN(C)CCn1nnnc1SCC1=C(C(=O)O)N2C(=O)[C@@H](NC(=O)Cc3csc(N)n3)[C@H]2SC1 [Cefotiam hydrochloride]	105
CO[C@@]1(NC(=O)Cc2cccs2)C(=O)N2C(C(=O)O)=C(COC(N)=O)CS[C@@H]21 [Cefoxitin sodium]	78
Cc1cc(O)c(C(=O)N[C@@H](C(=O)N[C@@H]2C(=O)N3C(C(=O)O)=C(CSc4nnnn4C)CS[C@H]23)c2ccc(O)cc2)cn1 [Cefpiramide acid]	97
CO/N=C(\C(=O)N[C@@H]1C(=O)N2C(C(=O)O)=C(C[n+]3cccc4c3CCC4)CS[C@H]12)c1csc(N)n1.O=S(=O)([O-])O [Cefpirome sulfate]	93
